Measured values: patent publication US5519022A, “α, α dialkylbenzyl derivatives” (Imperial Chemical Industries Plc, priority 1991, dated 1996)
pIC50: −log10 of the molar value.

Biological target: T1, 5-LO (Homo sapiens, UniProt P09917)
T1 construct: effects of a test compound against 5-LO and also cyclooxygenase in the presence of blood cells and proteins; endogenous in cells; host or cells: blood cells in heparinised human blood challenged with calcium ionophore A23187
T1 sequence (P09917 1-674): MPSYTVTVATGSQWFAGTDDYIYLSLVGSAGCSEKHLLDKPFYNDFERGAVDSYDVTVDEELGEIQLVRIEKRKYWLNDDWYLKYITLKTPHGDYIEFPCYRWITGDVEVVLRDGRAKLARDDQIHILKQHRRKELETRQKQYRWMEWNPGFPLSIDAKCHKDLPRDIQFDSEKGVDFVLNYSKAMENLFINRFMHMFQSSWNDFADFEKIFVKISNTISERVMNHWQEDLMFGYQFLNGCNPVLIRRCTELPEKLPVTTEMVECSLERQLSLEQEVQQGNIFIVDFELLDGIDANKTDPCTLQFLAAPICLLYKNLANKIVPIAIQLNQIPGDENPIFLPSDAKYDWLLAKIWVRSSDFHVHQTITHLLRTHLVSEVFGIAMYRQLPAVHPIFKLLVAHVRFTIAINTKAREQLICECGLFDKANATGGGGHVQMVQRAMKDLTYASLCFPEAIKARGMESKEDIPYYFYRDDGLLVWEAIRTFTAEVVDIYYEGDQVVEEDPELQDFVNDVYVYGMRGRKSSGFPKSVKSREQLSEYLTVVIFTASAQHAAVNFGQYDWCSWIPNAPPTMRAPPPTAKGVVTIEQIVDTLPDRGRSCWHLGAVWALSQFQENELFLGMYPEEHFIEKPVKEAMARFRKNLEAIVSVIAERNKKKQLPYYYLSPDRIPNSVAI
Experiment: Test a) in vitro inhibition of LTB4 production in A23187-challenged heparinised human blood (radioimmunoassay)
Format: cell-based
Conditions: calcium ionophore A23187 challenge
Protocol: a) An in vitro assay system involving incubating a test compound with heparinised human blood, prior to challenge with the calcium ionophore A23187 and then indirectly measuring the inhibitory effects on 5-LO by assaying the amount of LTB4 using specific radioimmunoassays described by Carey and Forder (F. Carey and R. A. Forder, Prostaglandins, Leukotrienes Med., 1986, 22, 57; Prostaglandins, 198, 28, 666; Brit. J. Pharmacol. 1985, 84, 34P) which involve the use of a protein-LTB4 conjugate produced using the procedure of Young et alia (Prostaglandins, 1983, 26(4), 605-613). The effects of a test compound on the enzyme cyclooxygenase (which is involved in the alternative metabolic pathway for arachidonic acid and gives rise to prostaglandins, thromboxanes and related metabolites) may be measured at the same time using the specific radioimmunoassay for thromboxane B2 (TxB2) described by Carey and Forder (see above). This test provides an indication of the effects of a test compound against 5-LO and also cyclooxygenase in the presence of blood cells and proteins. It permits the selectivity of the inhibitory effect on 5-LO or cyclooxygenase to be assessed.

| pIC50 | Compound |
| --- | --- |
| 6.30 | CCC(C#N)(CC)c1cccc(OCc2ccc3c(ccc(=O)n3C)c2)c1 [2-ethyl-2-[3-(1-methyl-2-oxo-1,2-dihydroquinolin-6-ylmethoxy)phenyl]butyronitrile] |
| 7.10 | CCC(C)(C#N)c1cccc(OCc2ccc3c(ccc(=O)n3C)c2)c1 (stereo not shown) [2-methyl-2-[3-(1-methyl-2-oxo-1,2-dihydroquinolin-6-ylmethoxy)phenyl]butyronitrile] |
| 6.82 | CCC(CC)(C(C)=O)c1cccc(OCc2ccc3c(ccc(=O)n3C)c2)c1 [3-ethyl-3-[3-(1-methyl-2-oxo-1,2-dihydroquinolin-6-ylmethoxy)phenyl]pentan-2-one] |
| 7.30 | C=CCC(C#N)(CC=C)c1cccc(OCc2ccc3c(ccc(=O)n3C)c2)c1 [2,2-diallyl-2-[3-(1-methyl-2-oxo-1,2-dihydroquinolin-6-ylmethoxy)phenyl]acetonitrile] |
